Measurements published in PubChem BioAssay AID1918952 (Molecular Pharmacology Branch, DTP, NCI, 2023).

Test system: LG0703-F948-PDC complex spheroid viability
Test: Anticancer human tumor LG0703-F948-PDC patient-derived lung adenocarcinoma cell line growth inhibition
Settings: for IC50: curve of first compound; for viability, T/C: stronger effect = lower value
How it was run: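 Complex spheroids of tumor cells with HUVEC and human MSCs, exposed to iadademstat combined with other agents. Each agent tested in half-log steps from near clinical Cmax (else 10 microM top), DMSO ≤0.25%.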

[1] = second compound 0.1 µM, first compound 0.00316 µM
[2] = second compound 0.1 µM, first compound 0.01 µM
[3] = second compound 0.1 µM, first compound 0.0316 µM
[4] = second compound 0.1 µM, first compound 0.1 µM
[5] = second compound 0.316 µM, first compound 0.00316 µM
[6] = second compound 0.316 µM, first compound 0.01 µM
[7] = second compound 0.316 µM, first compound 0.0316 µM
[8] = second compound 0.316 µM, first compound 0.1 µM
[9] = second compound 1 µM, first compound 0.00316 µM
[10] = second compound 1 µM, first compound 0.01 µM
[11] = second compound 1 µM, first compound 0.0316 µM
[12] = second compound 1 µM, first compound 0.1 µM
[13] = second compound 3.16 µM, first compound 0.00316 µM
[14] = second compound 3.16 µM, first compound 0.01 µM
[15] = second compound 3.16 µM, first compound 0.0316 µM
[16] = second compound 3.16 µM, first compound 0.1 µM
[17] = second compound 10 µM, first compound 0.00316 µM
[18] = second compound 10 µM, first compound 0.01 µM
[19] = second compound 10 µM, first compound 0.0316 µM
[20] = second compound 10 µM, first compound 0.1 µM
[21] = second compound 0.1 µM, first compound 0.00949 µM
[22] = second compound 0.1 µM, first compound 0.03 µM
[23] = second compound 0.1 µM, first compound 0.0949 µM
[24] = second compound 0.1 µM, first compound 0.3 µM
[25] = second compound 0.316 µM, first compound 0.00949 µM
[26] = second compound 0.316 µM, first compound 0.03 µM
[27] = second compound 0.316 µM, first compound 0.0949 µM
[28] = second compound 0.316 µM, first compound 0.3 µM
[29] = second compound 1 µM, first compound 0.00949 µM
[30] = second compound 1 µM, first compound 0.03 µM
[31] = second compound 1 µM, first compound 0.0949 µM
[32] = second compound 1 µM, first compound 0.3 µM
[33] = second compound 3.16 µM, first compound 0.00949 µM
[34] = second compound 3.16 µM, first compound 0.03 µM
[35] = second compound 3.16 µM, first compound 0.0949 µM
[36] = second compound 3.16 µM, first compound 0.3 µM
[37] = second compound 10 µM, first compound 0.00949 µM
[38] = second compound 10 µM, first compound 0.03 µM
[39] = second compound 10 µM, first compound 0.0949 µM
[40] = second compound 10 µM, first compound 0.3 µM
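Note: spheroids exposed to agents for seven days before readout.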
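Throughout, for viability, T/C: 100% = DMSO vehicle control wells as normalization base.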

CC[C@@]1(O)C(=O)OCc2c1cc1n(c2=O)Cc2cc3c(CN(C)C)c(O)ccc3nc2-1 + NC1CCC(NC2CC2c2ccccc2)CC1
IC50 (second compound 0.1 µM): > 100 nM | IC50 (second compound 0.316 µM): > 100 nM | IC50 (second compound 1 µM): > 100 nM | IC50 (second compound 3.16 µM): > 100 nM | IC50 (second compound 10 µM): > 100 nM | viability, T/C (second compound 0.1 µM, first compound 0.000316 µM): 103% | viability, T/C (second compound 0.1 µM, first compound 0.001 µM): 129% | viability, T/C [1]: 110% | viability, T/C [2]: 87.4% | viability, T/C [3]: 64.8% | viability, T/C [4]: 52.8% | viability, T/C (second compound 0.316 µM, first compound 0.000316 µM): 117% | viability, T/C (second compound 0.316 µM, first compound 0.001 µM): 111% | viability, T/C [5]: 104% | viability, T/C [6]: 95.8% | viability, T/C [7]: 78.2% | viability, T/C [8]: 63% | viability, T/C (second compound 1 µM, first compound 0.000316 µM): 128% | viability, T/C (second compound 1 µM, first compound 0.001 µM): 132% | viability, T/C [9]: 122% | viability, T/C [10]: 101% | viability, T/C [11]: 77.7% | viability, T/C [12]: 61.9% | viability, T/C (second compound 3.16 µM, first compound 0.000316 µM): 110% | viability, T/C (second compound 3.16 µM, first compound 0.001 µM): 134% | viability, T/C [13]: 117% | viability, T/C [14]: 101% | viability, T/C [15]: 98.4% | viability, T/C [16]: 69.6% | viability, T/C (second compound 10 µM, first compound 0.000316 µM): 130% | viability, T/C (second compound 10 µM, first compound 0.001 µM): 123% | viability, T/C [17]: 115% | viability, T/C [18]: 96.6% | viability, T/C [19]: 96.8% | viability, T/C [20]: 84.5%

COc1cc(C2c3cc4c(cc3C(OC3OC5COC(C)OC5C(O)C3O)C3COC(=O)C23)OCO4)cc(OC)c1O (stereo not given) + NC1CCC(NC2CC2c2ccccc2)CC1
IC50 (second compound 0.1 µM): > 3000 nM | IC50 (second compound 0.316 µM): > 3000 nM | IC50 (second compound 1 µM): > 3000 nM | IC50 (second compound 3.16 µM): > 3000 nM | IC50 (second compound 10 µM): > 3000 nM | viability, T/C [21]: 99.9% | viability, T/C [22]: 104% | viability, T/C [23]: 94.8% | viability, T/C [24]: 87.6% | viability, T/C (second compound 0.1 µM, first compound 0.949 µM): 72.2% | viability, T/C (second compound 0.1 µM, first compound 3 µM): 58.2% | viability, T/C [25]: 106% | viability, T/C [26]: 108% | viability, T/C [27]: 90.7% | viability, T/C [28]: 87.6% | viability, T/C (second compound 0.316 µM, first compound 0.949 µM): 77.8% | viability, T/C (second compound 0.316 µM, first compound 3 µM): 65% | viability, T/C [29]: 113% | viability, T/C [30]: 127% | viability, T/C [31]: 108% | viability, T/C [32]: 99.3% | viability, T/C (second compound 1 µM, first compound 0.949 µM): 91.4% | viability, T/C (second compound 1 µM, first compound 3 µM): 73.7% | viability, T/C [33]: 120% | viability, T/C [34]: 105% | viability, T/C [35]: 112% | viability, T/C [36]: 108% | viability, T/C (second compound 3.16 µM, first compound 0.949 µM): 98.5% | viability, T/C (second compound 3.16 µM, first compound 3 µM): 86.8% | viability, T/C [37]: 104% | viability, T/C [38]: 115% | viability, T/C [39]: 118% | viability, T/C [40]: 86.2% | viability, T/C (second compound 10 µM, first compound 0.949 µM): 97.5% | viability, T/C (second compound 10 µM, first compound 3 µM): 81.4%

Nc1ccn(C2OC(CO)C(O)C2(F)F)c(=O)n1 (stereo not given) + NC1CCC(NC2CC2c2ccccc2)CC1
IC50 (second compound 0.1 µM): 3.35 nM | IC50 (second compound 0.316 µM): 4.37 nM | IC50 (second compound 1 µM): 15.2 nM | IC50 (second compound 3.16 µM): 24.4 nM | IC50 (second compound 10 µM): 19.3 nM | viability, T/C (second compound 0.1 µM, first compound 0.000949 µM): 68.9% | viability, T/C (second compound 0.1 µM, first compound 0.003 µM): 50.5% | viability, T/C [21]: 41.8% | viability, T/C [22]: 44% | viability, T/C [23]: 39.1% | viability, T/C [24]: 36.8% | viability, T/C (second compound 0.316 µM, first compound 0.000949 µM): 67.5% | viability, T/C (second compound 0.316 µM, first compound 0.003 µM): 52.3% | viability, T/C [25]: 45.3% | viability, T/C [26]: 41.1% | viability, T/C [27]: 44.2% | viability, T/C [28]: 38.6% | viability, T/C (second compound 1 µM, first compound 0.000949 µM): 74.6% | viability, T/C (second compound 1 µM, first compound 0.003 µM): 56.1% | viability, T/C [29]: 55% | viability, T/C [30]: 46.4% | viability, T/C [31]: 48.1% | viability, T/C [32]: 37.2% | viability, T/C (second compound 3.16 µM, first compound 0.000949 µM): 86.8% | viability, T/C (second compound 3.16 µM, first compound 0.003 µM): 65.8% | viability, T/C [33]: 54.1% | viability, T/C [34]: 51.5% | viability, T/C [35]: 45.1% | viability, T/C [36]: 43.6% | viability, T/C (second compound 10 µM, first compound 0.000949 µM): 83.1% | viability, T/C (second compound 10 µM, first compound 0.003 µM): 56.8% | viability, T/C [37]: 56.8% | viability, T/C [38]: 49% | viability, T/C [39]: 51.1% | viability, T/C [40]: 42.2%

Nc1ncn(C2CC(O)C(CO)O2)c(=O)n1 (stereo not given) + NC1CCC(NC2CC2c2ccccc2)CC1
IC50 (second compound 0.1 µM): > 1000 nM | IC50 (second compound 0.316 µM): > 1000 nM | IC50 (second compound 1 µM): > 1000 nM | IC50 (second compound 3.16 µM): > 1000 nM | IC50 (second compound 10 µM): > 1000 nM | viability, T/C [1]: 101% | viability, T/C [2]: 102% | viability, T/C [3]: 98% | viability, T/C [4]: 96.3% | viability, T/C (second compound 0.1 µM, first compound 0.316 µM): 95.4% | viability, T/C (second compound 0.1 µM, first compound 1 µM): 81.9% | viability, T/C [5]: 114% | viability, T/C [6]: 118% | viability, T/C [7]: 110% | viability, T/C [8]: 98.7% | viability, T/C (second compound 0.316 µM, first compound 0.316 µM): 102% | viability, T/C (second compound 0.316 µM, first compound 1 µM): 98.5% | viability, T/C [9]: 107% | viability, T/C [10]: 126% | viability, T/C [11]: 130% | viability, T/C [12]: 106% | viability, T/C (second compound 1 µM, first compound 0.316 µM): 97% | viability, T/C (second compound 1 µM, first compound 1 µM): 112% | viability, T/C [13]: 122% | viability, T/C [14]: 121% | viability, T/C [15]: 117% | viability, T/C [16]: 111% | viability, T/C (second compound 3.16 µM, first compound 0.316 µM): 131% | viability, T/C (second compound 3.16 µM, first compound 1 µM): 101% | viability, T/C [17]: 122% | viability, T/C [18]: 141% | viability, T/C [19]: 111% | viability, T/C [20]: 114% | viability, T/C (second compound 10 µM, first compound 0.316 µM): 113% | viability, T/C (second compound 10 µM, first compound 1 µM): 122%
